Measurements taken from PubChem BioAssay AID1963969 (Molecular Pharmacology Branch, DTP, NCI, 2024).
Values joined by “and” are separate entries in the source; they are usually repeats but may differ in a detail not shown here. Equal values may be shown once.

Tested on: 817829-284-R-J1-PDC multi-cell spheroid viability
Assay: Anticancer human tumor 817829-284-R-J1-PDC patient-derived colon adenocarcinoma cell line growth inhibition [PI3K]
Conditions: for viability, T/C: stronger effect = lower value
From the text: Combinatorial screen of targeted agents with the PI3K inhibitors inavolisib, alpelisib, duvelisib, and copanlisib in multi-cell type tumor spheroids
A high-throughput screen of multi-cell type tumor spheroids was designed to identify active combinations of targeted small molecules and PI3K pathway inhibitors. Complex spheroids include a stromal component modeled by human endothelial cells (HUVEC) and fibroblasts modeled by human mesenchymal stem cells (MSCs). The concentration ranges selected for each drug and investigational agent were based upon clinically achievable concentrations if the clinical Cmax of the agent was known.
Compounds. The drugs and investigational agents: inavolisib (NSC800729), alpelisib (NSC765974), duvelisib (NSC772469), copanlisib (NSC816437), ipatasertib (NSC767898), afuresertib (NSC778305), talazoparib (NSC767125), sapanisertib (NSC764658), selumetinib (NSC741078), tovorafenib (DAY101, NSC766906), vemurafenib (NSC761431), ravoxertinib (NSC781343), sotorasib (NSC818433), MRTX1133 (NSC 836407), abemaciclib (NSC 768073), palbociclib (NSC758247), venetoclax (NSC 766270), SY5609 (NSC837396), enzalutamide (NSC755605), and darolutamide (NSC825331), were obtained from the National Cancer Institute (NCI) Developmental Therapeutics Program Chemical Repository. The FDA-approved anticancer drug set is available from the NCI Developmental Therapeutics Program. […] The stock solutions were prepared in dimethyl sulfoxide (DMSO, Sigma-Aldrich, St. Louis, MO, cat. D2650) at 800-fold the tested concentration and stored at -70 degrees C prior to their use. All drugs and investigational agents were tested over a range starting from a high concentration at or near the clinical Cmax and decreasing in half-log increments. If the clinical Cmax for an agent had not been determined, the highest concentration tested was 10 microM.
Cell Culture. All cells were maintained in an incubator at 37 degrees C and 5% CO2 with 95% humidity. The PDC lines were cultured according to standard operating procedures established by the NCI PDMR (https://pdmr.cancer.gov/sops/default.htm). All PDCs were thawed and cultured in Matrigel-coated flasks prepared with a working solution of 1X Ham's F-12 nutrient mix, without supplementation (Invitrogen, Waltham, MA, cat. 11765054), 100 U/mL penicillin-streptomycin (Invitrogen, cat. 15140122), and 2.5% Matrigel (Corning Inc., Corning, NY, cat. 354248) for the first three passages. The 354836-022-R-J1-PDC, 475296-252-R-J1-PDC, and 997726-040-R-J2-PDC lines were cultured in 6A media, which includes advanced DMEM/F-12 (Thermo Fisher Scientific, cat. 12634028), 10 mM HEPES (Thermo Fisher Scientific, cat. 15630080), 1X GlutaMAX supplement (Thermo Fisher Scientific, cat. 35050061), 0.1 mg/mL primocin (InvivoGen, San Diego, CA, cat. ant-pm-2), 10% defined fetal bovine serum, heat inactivated (HyClone Laboratories Inc., Logan, UT, cat. SH30070.03HI), 50% L-WRN conditioned media (ATCC, cat. CRL-3276), 1.25 mM N-Acetyl-L-cysteine (Sigma-Aldrich, cat. A9165), 10 mM nicotinamide (Sigma-Aldrich, cat. N0636), 1X B-27 supplement (Thermo Fisher Scientific, cat. 17504044), 1X N-2 supplement (Thermo Fisher Scientific, cat. 17502048), and 10 microM Y-27632 dihydrochloride (Tocris Bioscience, Bristol, United Kingdom, cat. 1254). The 624824-186-R-J2-PDC line was cultured in 6C/Colon 1B media, which includes all 6A media components plus 50 ng/mL human EGF recombinant protein (Thermo Fisher Scientific, cat. PHG0311). […]
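Also: spheroids exposed to agents for seven days before readout.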
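For viability, T/C in this document: percent of vehicle DMSO control viability which is 100%.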

With `C[C@@H](NC(=O)c1ncnc(N)c1Cl)c1ncc(C(=O)Nc2cc(C(F)(F)F)c(Cl)cn2)s1` + COc1c(OCCCN2CCOCC2)ccc2c3n(c(=NC(=O)c4cnc(N)nc4)nc12)CCN3 as the compound, how does the IC50 (curve of first compound, second compound 0.00316 µM) read?
The IC50 was 10 µM.

What about the IC50 (curve of first compound, second compound 0.01 µM) of the same compound?
Its IC50 is > 10 µM.

What about the IC50 (curve of first compound, second compound 0.0316 µM) of the same compound?
The IC50 was > 10 µM.

And the IC50 (curve of first compound, second compound 0.1 µM)?
The IC50 was < 0.0316 µM.

What about the IC50 (curve of first compound, second compound 0.316 µM) of the same compound?
Its IC50 is < 0.0316 µM.

And the IC50 (curve of first compound, second compound 1 µM)?
Its IC50 is < 0.0316 µM.

And the viability, T/C (second compound 0.00316 µM, first compound 0.0316 µM)?
The viability, T/C was 126%.

What about the viability, T/C (second compound 0.00316 µM, first compound 0.1 µM) of the same compound?
Its viability, T/C is 153%.

And the viability, T/C (second compound 0.00316 µM, first compound 0.316 µM)?
Its viability, T/C is 59.9%.

What about the viability, T/C (second compound 0.00316 µM, first compound 1 µM) of the same compound?
The viability, T/C was 62%.

And the viability, T/C (second compound 0.00316 µM, first compound 3.16 µM)?
The viability, T/C was 69.7%.

What about the viability, T/C (second compound 0.00316 µM, first compound 10 µM) of the same compound?
The viability, T/C was 69.3%.

And the viability, T/C (second compound 0.01 µM, first compound 0.0316 µM)?
Its viability, T/C is 101%.

And the viability, T/C (second compound 0.01 µM, first compound 0.1 µM)?
Its viability, T/C is 79.9%.

And the viability, T/C (second compound 0.01 µM, first compound 0.316 µM)?
The viability, T/C was 72%.

What about the viability, T/C (second compound 0.01 µM, first compound 1 µM) of the same compound?
Its viability, T/C is 68.5%.

What about the viability, T/C (second compound 0.01 µM, first compound 3.16 µM) of the same compound?
The viability, T/C was 75.3%.

What about the viability, T/C (second compound 0.01 µM, first compound 10 µM) of the same compound?
Its viability, T/C is 87.7%.

What about the viability, T/C (second compound 0.0316 µM, first compound 0.0316 µM) of the same compound?
The viability, T/C was 68.5%.

What about the viability, T/C (second compound 0.0316 µM, first compound 0.1 µM) of the same compound?
The viability, T/C was 64.1%.

What about the viability, T/C (second compound 0.0316 µM, first compound 0.316 µM) of the same compound?
Its viability, T/C is 43.2%.

And the viability, T/C (second compound 0.0316 µM, first compound 1 µM)?
The viability, T/C was 57.1%.

And the viability, T/C (second compound 0.0316 µM, first compound 3.16 µM)?
The viability, T/C was 64%.

What about the viability, T/C (second compound 0.0316 µM, first compound 10 µM) of the same compound?
The viability, T/C was 72.3%.

What about the viability, T/C (second compound 0.1 µM, first compound 0.0316 µM) of the same compound?
Its viability, T/C is 31%.

What about the viability, T/C (second compound 0.1 µM, first compound 0.1 µM) of the same compound?
Its viability, T/C is 38%.

And the viability, T/C (second compound 0.1 µM, first compound 0.316 µM)?
Its viability, T/C is 29.8%.

And the viability, T/C (second compound 0.1 µM, first compound 1 µM)?
Its viability, T/C is 32.3%.

And the viability, T/C (second compound 0.1 µM, first compound 3.16 µM)?
Its viability, T/C is 41.5%.

And the viability, T/C (second compound 0.1 µM, first compound 10 µM)?
Its viability, T/C is 62.8%.

What about the viability, T/C (second compound 0.316 µM, first compound 0.0316 µM) of the same compound?
Its viability, T/C is 26.3%.

And the viability, T/C (second compound 0.316 µM, first compound 0.1 µM)?
Its viability, T/C is 20%.

What about the viability, T/C (second compound 0.316 µM, first compound 0.316 µM) of the same compound?
Its viability, T/C is 24.6%.

What about the viability, T/C (second compound 0.316 µM, first compound 1 µM) of the same compound?
Its viability, T/C is 23.8%.

And the viability, T/C (second compound 0.316 µM, first compound 3.16 µM)?
Its viability, T/C is 21.9%.

And the viability, T/C (second compound 0.316 µM, first compound 10 µM)?
Its viability, T/C is 16.5%.

What about the viability, T/C (second compound 1 µM, first compound 0.0316 µM) of the same compound?
Its viability, T/C is 11.8%.

And the viability, T/C (second compound 1 µM, first compound 0.1 µM)?
Its viability, T/C is 10.6%.

And the viability, T/C (second compound 1 µM, first compound 0.316 µM)?
The viability, T/C was 10.6%.

And the viability, T/C (second compound 1 µM, first compound 1 µM)?
Its viability, T/C is 9.58%.

And the viability, T/C (second compound 1 µM, first compound 3.16 µM)?
Its viability, T/C is 10%.

And the viability, T/C (second compound 1 µM, first compound 10 µM)?
The viability, T/C was 4.95%.

How did the IC50 (curve of compound) turn out when `CC(Cn1ccc(-c2ccc(C#N)c(Cl)c2)n1)NC(=O)c1cc(C(C)O)[nH]n1` (stereo not given) was run?
Its IC50 is > 10 µM.

How did the viability, T/C (compound 0.0316 µM) turn out when `C[C@@H](NC(=O)c1ncnc(N)c1Cl)c1ncc(C(=O)Nc2cc(C(F)(F)F)c(Cl)cn2)s1` was run?
The viability, T/C was 97.5% and 79.4%.

What about the viability, T/C (compound 0.1 µM) of the same compound?
The viability, T/C was 79.2% and 114%.

What about the viability, T/C (compound 0.316 µM) of the same compound?
The viability, T/C was 89.2% and 87.8%.

What about the viability, T/C (compound 1 µM) of the same compound?
Its viability, T/C is 70.5% and 67%.

What about the viability, T/C (compound 3.16 µM) of the same compound?
The viability, T/C was 113% and 64.2%.

What about the viability, T/C (compound 10 µM) of the same compound?
Its viability, T/C is 59.5% and 101%.

What about the IC50 (curve of compound) of the same compound?
Its IC50 is > 10 µM.
